# Laboratory results reported in the RepoRT retention time repository (doi:10.1016/j.aca.2011.12.065).
# Structures can show the parent of a compound that is named as a salt.
# Experiment: RP, Waters ACQUITY UPLC BEH C18, 100 × 2.1 mm, 1.7 µm; A: water + 0.1% formic acid, pH 3; B: 80% acetonitrile + 20% acetone + 0.1% formic acid, pH 3; gradient (min/%B) 0/0 6/100
# Details: stereoisomer not certain
row,LC retention time [min],Compound
1,4.95,CCCCCCCCCCCCCCCCC=COCC(O)COP(=O)([O-])OCC[N+](C)(C)C (stereo not drawn)
2,1.99,CC(C)CC(=O)C(=O)O [2-Oxo-4-methylpentanoic acid]
3,1.62,CCCC(=O)C(=O)O [2-Oxovaleric acid]
4,1.69,"O=C(O)CCc1ccc(O)c(O)c1 [3,4-dihydroxyhydrocinnamic acid]"
5,1.51,CC(O)C(C)C(=O)O (stereo not drawn) [3-Hydroxy-2-methylbutyric acid]
6,0.641,Nc1ccc(O)cc1 [4-aminophenol]
7,2.41,COc1ccc(O)c(C(=O)O)c1 [5-methoxysalicylic acid]
8,3.04,CC12CCC(=O)C=C1CCC1C2CCC2(C)C1CCC2(O)C(=O)CO (stereo not drawn) [11-Deoxy-17-hydroxycorticosterone]
9,4.33,CC(O)C1CCC2C3CCC4CC(=O)CCC4(C)C3CCC12C (stereo not drawn) [20-beta-Hydroxy-5-alpha-pregnan-3-one]
10,1.4,CC[C@@H](O)C(=O)[O-] [(R)-2-hydroxybutyric acid]
11,4.86,CCCCCCCCCCCCCCCCOCC(COP(=O)([O-])OCC[N+](C)(C)C)OC(=O)CCCCCCCC(=O)O (stereo not drawn) [Azelaoyl PAF 10 ug/ml]
12,3.19,CC12CCc3occc3C1CCC13CC(CCC12)C(O)(CO)C3 (stereo not drawn) [Cafestol (10x dilute)]
13,1.86,CC(C)CC1NC(=O)C(C)NC1=O (stereo not drawn) [Cyclic(ala-leu)]
14,0.884,O=C(O)CCC1NC(=O)C(CC(=O)O)NC1=O (stereo not drawn) [Cyclic(asp-glu)]
15,1.5,CC(C)C1NC(=O)C(CCC(=O)O)NC1=O (stereo not drawn) [Cyclic(glu-val)]
16,2.39,CC(C)C1NC(=O)C(Cc2ccccc2)NC1=O (stereo not drawn) [Cyclic(phe-val)]
17,1.74,CC(C)C1NC(=O)C2CCCN2C1=O (stereo not drawn) [Cyclic(pro-val)]

row,LC retention time [min],Compound
1,4.02,CCC=CCC=CCC=CCC=CCC=CCCCC(=O)OCC(O)COP(=O)([O-])OCC[N+](C)(C)C (stereo not drawn) [LPC(20:5)_enz]
2,4.66,CCCCCCCCCCCCCCCC(=O)OCC(COP(=O)([O-])OCC[N+](C)(C)C)OC(=O)CCCCCCCC(=O)O (stereo not drawn) [PAZ-PC]
3,5.62,CCC=CCC=CCC=CCC=CCC=CCCCC(=O)OCC(COP(=O)([O-])OCC[N+](C)(C)C)OC(=O)CCCC=CCC=CCC=CCC=CCC=CCC (stereo not drawn) [PC(20:5/20:5)]
4,4.52,CCCCCCCCCCCCCCCC(=O)OCC(COP(=O)([O-])OCC[N+](C)(C)C)OC(=O)CCCC(=O)O (stereo not drawn) [PGPC]
5,1.63,CC(C)C(NC(=O)C(N)Cc1ccccc1)C(=O)O (stereo not drawn) [Phe-Val]
6,0.798,CC(C)C(N)C(=O)O (stereo not drawn) [Valine]
7,0.6,CCC(C)C(NC(=O)C(N)CC(=O)O)C(=O)O (stereo not drawn) [asp-ile]
8,0.6,CC(C)CC(NC(=O)C(N)CC(=O)O)C(=O)O (stereo not drawn) [asp-leu]
9,0.6,CC(C)CC(NC(=O)CC(N)C(=O)O)C(=O)O (stereo not drawn) [beta-asp-leu]
10,1.32,CC(C)C(NC(=O)C(N)CCC(=O)O)C(=O)O (stereo not drawn) [glu-val]
11,0.6,CCC(C)C(N)C(=O)NC(CC(=O)O)C(=O)O (stereo not drawn) [ile-asp]
12,1.34,Nc1ccccc1C(=O)CC(N)C(=O)O (stereo not drawn) [l-kynurenine]
13,0.6,CC(C)CC(N)C(=O)NC(CC(=O)O)C(=O)O (stereo not drawn) [leu-asp]
14,1.89,CC(C)CC(NC(=O)C1CCC(=O)N1)C(=O)O (stereo not drawn) [pglu-leu]
15,1.57,CC(C)C(NC(=O)C1CCC(=O)N1)C(=O)O (stereo not drawn) [pglu-val]
16,1.54,NC(Cc1ccccc1)C(=O)NC(CC(=O)O)C(=O)O (stereo not drawn) [phe-asp]
17,3.84,CC(CCC(=O)NCCS(=O)(=O)O)C1CCC2C3CCC4CC(O)CCC4(C)C3CCC12C (stereo not drawn) [taurolithocholic acid]

# Continued, compound first:
row,Compound,LC retention time [min]
1,CCC(C)(O)C(=O)O (stereo not drawn) [2-Hydroxy-2-methylbutyric acid],1.63
2,CC(C)C(O)C(=O)O (stereo not drawn) [2-Hydroxy-3-methylbutyric acid],1.69
3,CCC(C)C(=O)C(=O)O (stereo not drawn) [2-Oxo-3-methylpentanoic acid],1.86
4,CC(=O)C(C)C(=O)O (stereo not drawn) [2-methylacetoacetic acid],1.61
5,"OCC(O)c1ccc(O)c(O)c1 (stereo not drawn) [3,4-dihydroxyphenyl glycol]",1.02
6,Nc1ccc(OS(=O)(=O)O)cc1 [4-Aminophenyl hydrogen sulfate],0.641
7,O=C(O)Cc1c[nH]c2ccc(O)cc12 [5-hydroxyindole-3-acetic acid],1.61
8,CC(C)C(=O)C(=O)O [Alpha-ketoisovaleric acid],1.45
9,CCC(C)C1NC(=O)C(C)NC1=O (stereo not drawn) [Cyclic(ala-ile)],1.8
10,CCC(C)C1NC(=O)C(CC(=O)O)NC1=O (stereo not drawn) [Cyclic(asp-ile)],1.65
11,CC(C)CC1NC(=O)C(CC(=O)O)NC1=O (stereo not drawn) [Cyclic(asp-leu)],1.68
12,CCC(C)C1NC(=O)C(CCC(=O)O)NC1=O (stereo not drawn) [Cyclic(glu-ile)],1.71
13,O=C(O)CCC1NC(=O)C2CCCN2C1=O (stereo not drawn) [Cyclic(glu-pro)],1.43
14,CCC(C)C1NC(=O)C(C(C)C)NC1=O (stereo not drawn) [Cyclic(ile-val)],2.31
15,O=C(O)CNC(=O)C=Cc1c[nH]c2ccccc12 [INDOLE-3-ACRYLOYLGLYCINE],2.13
16,CCCCCC=CCC=CCCCCCCCC(=O)OCC(O)COP(=O)([O-])OCC[N+](C)(C)C (stereo not drawn) [LPC(18:2)_enz],4.25
17,CNC(CC(=O)O)C(=O)O (stereo not drawn) [N-methyl-aspartic acid],0.58
18,O=C(O)CNC(=O)c1cccnc1 [Nicotinuric acid],1.35

row,Compound,LC retention time [min]
1,CCCCCCCCCCCCCCCC(=O)OCC(COP(=O)([O-])OCC[N+](C)(C)C)OC(=O)CCCC=O (stereo not drawn) [POV-PC 10 ug/ml],4.66
2,CC12C=CC(=O)C=C1CCC1C2C(O)CC2(C)C1CCC2(O)C(=O)CO (stereo not drawn) [Prednisolone],2.65
3,Cc1ncc(C[n+]2csc(CCOP(=O)(O)O)c2C)c(N)n1 [Thiamine monophosphate Cloride dihydrat],0.595
4,CC(C)C(N)C(=O)NC(Cc1ccccc1)C(=O)O (stereo not drawn) [Val-Phe],1.7
5,CC(C)(O)C(=O)O [alpha-hydroxyisobutyric acid],1.4
6,CCC(C)C(NC(=O)CC(N)C(=O)O)C(=O)O (stereo not drawn) [beta-asp-ile],0.6
7,CC(O)CC(=O)[O-] (stereo not drawn) [beta-hydroxybutyric acid],1.78
8,CC(CO)C(=O)O (stereo not drawn) [beta-hydroxyisobutyric acid],1.4
9,CS(=O)CCC(N)C(=O)O (stereo not drawn) [dl methine sulfoxide],0.596
10,O=C(O)CCCO [gamma-hydroxybutyric acid],1.07
11,O=Cc1c[nH]c2ccccc12 [indole-3-carbaldehyde],2.27
12,O=C(O)CC(NC(=O)C1CCC(=O)N1)C(=O)O (stereo not drawn) [pglu-asp],0.6
13,CCC(C)C(NC(=O)C1CCC(=O)N1)C(=O)O (stereo not drawn) [pglu-ile],1.83
14,CC(O)C(NC(=O)C1CCCN1)C(=O)O (stereo not drawn) [pro-thr],0.6
15,CCC(=O)OC(CC(=O)[O-])C[N+](C)(C)C (stereo not drawn) [propionylcarnitine chloride],1.35
16,COc1cc(C(=O)O)cc(OC)c1O [syringic acid],1.79
17,CC(C)C(N)C(=O)NC(CCC(=O)O)C(=O)O (stereo not drawn) [val-glu],0.906

# Experiment: RP, Waters ACQUITY UPLC HSS T3, 100 × 2.1 mm, 1.8 µm; A: water + 0.1% formic acid, pH 3; B: 30% methanol + 70% acetonitrile + 0.1% formic acid, pH 3; gradient (min/%B) 0.0/5 1.0/8 2.0/15 3.0/40 4.0/70 4.5/100 5.0/100 6.4/100 6.6/5.0 6.8/5.0 7.0/5.0
# Details: stereoisomer not certain
row,LC retention time [min],Compound
1,2.23,CCC(C)(O)C(=O)O (stereo not drawn) [2-hydroxy-2-methylbutyric acid]
2,3.69,COc1ccc(O)c(C(=O)O)c1 [2-hydroxy-5-methoxylbenzoic acid]
3,3.41,Cc1ccccc1C(=O)NCC(=O)O [2-methylhippuric acid]
4,0.858,"OCC(O)c1ccc(O)c(O)c1 (stereo not drawn) [3,4-dihydroxyphenylglycol]"
5,1.55,"Cn1c(=O)[nH]c(=O)c2c1[nH]c(=O)n2C [3,7-dimethyluric acid]"
6,3.63,O=C(O)Cc1c[nH]c2ccccc12 [3-indoleacetic acid]
7,1.25,Cn1cnc2[nH]c(=O)[nH]c(=O)c21 [7-methylxanthine]
8,2.81,O=C(O)C1OC(Oc2ccccc2O)C(O)C(O)C1O (stereo not drawn) [Pyrocatechol glucuronide]
9,0.638,C=CCS(=O)CC(N)C(=O)O (stereo not drawn) [aliin]
10,1.92,CC(C)C(=O)C(=O)O [alpha-ketoisovaleric acid]
11,0.441,Cn1cncc1CC(NC(=O)CCN)C(=O)O (stereo not drawn) [anserine]
12,2.67,NC(CC(=O)O)C(=O)NC(Cc1ccccc1)C(=O)O (stereo not drawn) [asp-phe]
13,0.437,NCCC(=O)NC(Cc1cnc[nH]1)C(=O)O (stereo not drawn) [carnosine]

# The remaining lines, values behind:
row,Compound,LC retention time [min]
1,CC12CCC3C(CCC4CC(=O)CCC43C)C1CCC2O (stereo not drawn),4.47
2,CC(C)(N)C(=O)O [2-aminoisobutyric acid],0.524
3,CC(C)C(O)C(=O)O (stereo not drawn) [2-hydroxyisovaleric acid],2.54
4,CC(O)CC(=O)O (stereo not drawn) [3-hydroxybutyric acid],3.44
5,Cc1cc(C(=O)O)ccc1O [4-hydroxy-3-methylbenzoic acid],3.46
6,O=C(O)Cc1c[nH]c2ccc(O)cc12 [5-hydroxyindole-acetic acid],2.92
7,Cn1c(=O)[nH]c2[nH]c(=O)[nH]c(=O)c21 [7-methyluric acid],1.08
8,O=C1OC(C(O)CO)C(O)=C1O (stereo not drawn) [Ascorbic acid],0.561
9,C[N+](C)(C)[O-] [TMAO],0.468
10,CC(=O)Nc1c(N)[nH]c(=O)n(C)c1=O [aamu],0.666
11,NC(=O)NC(NC(N)=O)C(=O)O [allantoic acid],0.491
